Reference: ChEMBL document CHEMBL5352412, “Discovery of 1,2-diphenylethene derivatives as human DNA topoisomerase II catalytic inhibitors and antitumor agents” (Eur J Med Chem, 2022)
Active and inactive are the calls of the source. No cut-off for these calls is given here.

How the values were obtained:
[1] = molecular target: T1, DNA topoisomerase 2-alpha (Homo sapiens, UniProt P11388); assay: Inhibition of human topoisomerase 2-alpha using pBR322 DNA as substrate incubated for 30 mins in presence of 0.5 to 5 mM ATP (reference value: 3.4 microM)
[2] = test system: MDA-MB-231; assay: Antiproliferative activity against human MDA-MB-231 cells incubated for 72 hrs by CCK8 assay; type: functional, cell-based; conditions: Homo sapiens, MDA-MB-231, 72 h
[3] = test system: HepG2; assay: Antiproliferative activity against human HepG2 cells incubated for 72 hrs by CCK8 assay; type: functional, cell-based; conditions: Homo sapiens, HepG2, 72 h
[4] = molecular target: T1, DNA topoisomerase 2-alpha; assay: Inhibition of human topoisomerase 2-alpha assessed as reduction in relaxation of pBR322 DNA at 100 uM measured after 30 mins by agarose gel electrophoresis method relative to control
[5] = test system: HeLa; assay: Antiproliferative activity against human HeLa cells incubated for 72 hrs by CCK8 assay; type: functional, cell-based
[6] = test system: HCT-116; assay: Antiproliferative activity against human HCT-116 cells incubated for 72 hrs by CCK8 assay; type: functional, cell-based; conditions: HCT-116, 72 h
[7] = test system: PC-3; assay: Antiproliferative activity against human PC-3 cells incubated for 72 hrs by CCK8 assay; type: functional, cell-based; conditions: PC-3, 72 h
[8] = Antiproliferative activity against human CCL-226 cells incubated for 72 hrs by CCK8 assay; type: toxicity, cell-based
[9] = Antiproliferative activity against human BEAS-2B cells incubated for 72 hrs by CCK8 assay; type: toxicity, cell-based
[10] = organism: Homo sapiens; assay: Selectivity index, ratio of IC50 for human CCL-226 cells to IC50 for human HeLa cells
[11] = organism: Homo sapiens; assay: Selectivity index, ratio of IC50 for human CCL-226 cells to IC50 for human HCT-116 cells
[12] = organism: Homo sapiens; assay: Selectivity index, ratio of IC50 for human CCL-226 cells to IC50 for human PC-3 cells
[13] = organism: Homo sapiens; assay: Selectivity index, ratio of IC50 for human CCL-226 cells to IC50 for human MDA-MB-231 cells
[14] = organism: Homo sapiens; assay: Selectivity index, ratio of IC50 for human CCL-226 cells to IC50 for human HepG2 cells
[15] = Selectivity index, ratio of IC50 for human BEAS-2B cells to IC50 for human HCT-116 cells; type: toxicity; conditions: BEAS-2B cells versus HCT-116 cells, read-out: Ratio IC50
[16] = Selectivity index, ratio of IC50 for human BEAS-2B cells to IC50 for human PC-3 cells; type: toxicity; conditions: BEAS-2B cells versus PC-3 cells, read-out: Ratio IC50
[17] = Selectivity index, ratio of IC50 for human BEAS-2B cells to IC50 for human HepG2 cells; type: toxicity; conditions: BEAS-2B cells versus HepG2 cells, read-out: Ratio IC50
[18] = Selectivity index, ratio of IC50 for human BEAS-2B cells to IC50 for human A549 cells; type: toxicity; conditions: BEAS-2B cells versus A549 cells, read-out: Ratio IC50
[19] = Selectivity index, ratio of IC50 for human HL-7702 cells to IC50 for human HCT-116 cells; type: toxicity; conditions: HL-7702 cells versus HCT-116 cells, read-out: Ratio IC50
[20] = Selectivity index, ratio of IC50 for human HL-7702 cells to IC50 for human MDA-MB-231 cells; type: toxicity; conditions: HL-7702 cells versus MDA-MB-231 cells, read-out: Ratio IC50
[21] = Selectivity index, ratio of IC50 for human HL-7702 cells to IC50 for human HepG2 cells; type: toxicity; conditions: HL-7702 cells versus HepG2 cells, read-out: Ratio IC50
[22] = Selectivity index, ratio of IC50 for human HL-7702 cells to IC50 for human A549 cells; type: toxicity; conditions: HL-7702 cells versus A549 cells, read-out: Ratio IC50
[23] = molecular target: T1, DNA topoisomerase 2-alpha; assay: Inhibition of human topoisomerase 2-alpha assessed as DNA intercalation at 100 to 200 uM using pBR322 DNA as substrate measured after 30 mins by agarose gel electrophoresis analysis; conditions: dose 100-200 µM
[24] = test system: A549; assay: Antiproliferative activity against human A549 cells incubated for 72 hrs by CCK8 assay; type: functional, cell-based; conditions: A549, 72 h
[25] = molecular target: T1, DNA topoisomerase 2-alpha; assay: Poison activity at human topoisomerase 2-alpha assessed as linear DNA formation at 100 to 200 microM; conditions: dose 100-200 µM
[26] = test system: HepG2; assay: Upregulation of gamma-H2AX level in human HepG2 cells incubated for 4 hrs by Western blotting analysis; type: functional, cell-based
[27] = molecular target: T1, DNA topoisomerase 2-alpha; assay: Inhibition of human topoisomerase 2-alpha assessed as reduction in VP-16 induced enzyme-DNA cleavage complex formation by measuring linear DNA production; conditions: dose 10-100 µM
[28] = test system: HepG2; assay: Induction of cell cycle arrest in human HepG2 cells assessed as accumulation of cells at S phase at 0.5 uM incubated for 24 hrs by PI staining based flow cytometry analysis (reference value: 28.2%); type: functional
[29] = test system: HepG2; assay: Induction of cell cycle arrest in human HepG2 cells assessed as accumulation of cells at G2/M phase at 0.5 uM incubated for 24 hrs by PI staining based flow cytometry analysis (reference value: 17.5%); type: functional
[30] = test system: HepG2; assay: Induction of cell cycle arrest in human HepG2 cells assessed as accumulation of cells at S phase at 1 uM incubated for 24 hrs by PI staining based flow cytometry analysis (reference value: 28.2%); type: functional
[31] = test system: HepG2; assay: Induction of cell cycle arrest in human HepG2 cells assessed as accumulation of cells at G2/M phase at 1 uM incubated for 24 hrs by PI staining based flow cytometry analysis (reference value: 17.5%); type: functional
[32] = test system: HepG2; assay: Induction of apoptosis in human HepG2 cells assessed as early apoptotic cells at 1 uM incubated for 24 hrs by annexin-V FITC and PI staining based flow cytometry analysis (reference value: 3.7%); type: functional
[33] = test system: HepG2; assay: Induction of apoptosis in human HepG2 cells assessed as late apoptotic cells at 1 uM incubated for 24 hrs by annexin-V FITC and PI staining based flow cytometry analysis (reference value: 2.3%); type: functional
[34] = test system: HepG2; assay: Induction of apoptosis in human HepG2 cells assessed as necrotic cells at 1 uM incubated for 24 hrs by annexin-V FITC and PI staining based flow cytometry analysis (reference value: 0.2%); type: functional
[35] = Toxicity in C57BL/6J mouse assessed as change in body weight at 500 mg/kg administered via gavage twice at day 1 and measured for 7 days; type: organism-based; conditions: in vivo, po, 168 h, time 7 day
[36] = test system: HepG2; assay: Induction of apoptosis in human HepG2 cells assessed as late apoptotic cells at 0.5 uM incubated for 24 hrs by annexin-V FITC and PI staining based flow cytometry analysis (reference value: 2.3%); type: functional
[37] = test system: HepG2; assay: Induction of apoptosis in human HepG2 cells assessed as necrotic cells at 0.5 uM incubated for 24 hrs by annexin-V FITC and PI staining based flow cytometry analysis (reference value: 0.2%); type: functional
[38] = molecular target: T1, DNA topoisomerase 2-alpha; assay: Inhibition of human topoisomerase 2-alpha assessed as reduction in relaxation of pBR322 DNA measured after 30 mins by agarose gel electrophoresis method
[39] = molecular target: DNA topoisomerase 2-beta (Homo sapiens, UniProt Q02880); assay: Inhibition of human topoisomerase 2-beta assessed as reduction in relaxation of pBR322 DNA measured after 30 mins by agarose gel electrophoresis method
Chain of DNA topoisomerase 2-beta (Q02880 whole entry): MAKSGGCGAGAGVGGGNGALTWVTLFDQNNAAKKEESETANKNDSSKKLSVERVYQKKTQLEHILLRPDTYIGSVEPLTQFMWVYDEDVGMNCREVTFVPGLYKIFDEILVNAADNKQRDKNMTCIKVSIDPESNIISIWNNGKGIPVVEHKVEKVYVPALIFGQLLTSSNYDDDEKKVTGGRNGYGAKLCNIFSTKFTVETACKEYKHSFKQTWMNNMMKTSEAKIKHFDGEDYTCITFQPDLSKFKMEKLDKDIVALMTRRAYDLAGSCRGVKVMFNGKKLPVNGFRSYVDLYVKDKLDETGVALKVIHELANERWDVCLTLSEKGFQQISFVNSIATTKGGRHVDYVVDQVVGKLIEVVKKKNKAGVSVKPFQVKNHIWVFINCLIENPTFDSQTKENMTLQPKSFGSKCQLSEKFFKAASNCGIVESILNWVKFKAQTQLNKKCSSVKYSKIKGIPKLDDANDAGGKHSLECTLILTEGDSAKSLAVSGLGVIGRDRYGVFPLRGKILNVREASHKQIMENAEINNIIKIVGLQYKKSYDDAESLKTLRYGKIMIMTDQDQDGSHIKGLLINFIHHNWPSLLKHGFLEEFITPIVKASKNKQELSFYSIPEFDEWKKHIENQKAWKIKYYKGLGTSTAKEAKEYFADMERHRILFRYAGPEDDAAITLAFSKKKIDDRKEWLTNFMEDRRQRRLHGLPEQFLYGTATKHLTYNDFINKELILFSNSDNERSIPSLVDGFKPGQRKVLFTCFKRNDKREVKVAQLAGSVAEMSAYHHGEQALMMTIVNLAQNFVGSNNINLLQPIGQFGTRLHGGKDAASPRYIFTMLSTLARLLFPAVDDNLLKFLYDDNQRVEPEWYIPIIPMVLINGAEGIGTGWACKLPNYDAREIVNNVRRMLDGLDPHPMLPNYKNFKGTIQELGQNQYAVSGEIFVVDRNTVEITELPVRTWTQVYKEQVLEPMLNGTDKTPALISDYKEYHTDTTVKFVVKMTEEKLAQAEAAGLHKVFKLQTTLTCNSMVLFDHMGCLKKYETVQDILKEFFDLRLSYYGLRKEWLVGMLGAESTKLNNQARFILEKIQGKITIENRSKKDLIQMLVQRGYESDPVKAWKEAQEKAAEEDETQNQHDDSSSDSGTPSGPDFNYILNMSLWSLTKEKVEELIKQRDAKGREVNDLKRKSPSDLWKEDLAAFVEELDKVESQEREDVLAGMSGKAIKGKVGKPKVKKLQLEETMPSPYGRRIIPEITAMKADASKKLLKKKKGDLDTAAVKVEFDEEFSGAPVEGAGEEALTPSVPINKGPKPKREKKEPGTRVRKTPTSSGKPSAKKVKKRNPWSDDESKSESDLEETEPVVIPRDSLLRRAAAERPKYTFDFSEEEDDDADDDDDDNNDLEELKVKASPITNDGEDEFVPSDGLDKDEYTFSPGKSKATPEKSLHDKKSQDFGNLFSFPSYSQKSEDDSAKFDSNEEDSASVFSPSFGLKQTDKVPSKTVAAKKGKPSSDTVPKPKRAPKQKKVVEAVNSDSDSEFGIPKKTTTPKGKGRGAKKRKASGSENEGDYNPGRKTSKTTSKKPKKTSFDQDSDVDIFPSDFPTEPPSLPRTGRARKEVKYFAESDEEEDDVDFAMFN

T1 sequence (P11388 whole entry): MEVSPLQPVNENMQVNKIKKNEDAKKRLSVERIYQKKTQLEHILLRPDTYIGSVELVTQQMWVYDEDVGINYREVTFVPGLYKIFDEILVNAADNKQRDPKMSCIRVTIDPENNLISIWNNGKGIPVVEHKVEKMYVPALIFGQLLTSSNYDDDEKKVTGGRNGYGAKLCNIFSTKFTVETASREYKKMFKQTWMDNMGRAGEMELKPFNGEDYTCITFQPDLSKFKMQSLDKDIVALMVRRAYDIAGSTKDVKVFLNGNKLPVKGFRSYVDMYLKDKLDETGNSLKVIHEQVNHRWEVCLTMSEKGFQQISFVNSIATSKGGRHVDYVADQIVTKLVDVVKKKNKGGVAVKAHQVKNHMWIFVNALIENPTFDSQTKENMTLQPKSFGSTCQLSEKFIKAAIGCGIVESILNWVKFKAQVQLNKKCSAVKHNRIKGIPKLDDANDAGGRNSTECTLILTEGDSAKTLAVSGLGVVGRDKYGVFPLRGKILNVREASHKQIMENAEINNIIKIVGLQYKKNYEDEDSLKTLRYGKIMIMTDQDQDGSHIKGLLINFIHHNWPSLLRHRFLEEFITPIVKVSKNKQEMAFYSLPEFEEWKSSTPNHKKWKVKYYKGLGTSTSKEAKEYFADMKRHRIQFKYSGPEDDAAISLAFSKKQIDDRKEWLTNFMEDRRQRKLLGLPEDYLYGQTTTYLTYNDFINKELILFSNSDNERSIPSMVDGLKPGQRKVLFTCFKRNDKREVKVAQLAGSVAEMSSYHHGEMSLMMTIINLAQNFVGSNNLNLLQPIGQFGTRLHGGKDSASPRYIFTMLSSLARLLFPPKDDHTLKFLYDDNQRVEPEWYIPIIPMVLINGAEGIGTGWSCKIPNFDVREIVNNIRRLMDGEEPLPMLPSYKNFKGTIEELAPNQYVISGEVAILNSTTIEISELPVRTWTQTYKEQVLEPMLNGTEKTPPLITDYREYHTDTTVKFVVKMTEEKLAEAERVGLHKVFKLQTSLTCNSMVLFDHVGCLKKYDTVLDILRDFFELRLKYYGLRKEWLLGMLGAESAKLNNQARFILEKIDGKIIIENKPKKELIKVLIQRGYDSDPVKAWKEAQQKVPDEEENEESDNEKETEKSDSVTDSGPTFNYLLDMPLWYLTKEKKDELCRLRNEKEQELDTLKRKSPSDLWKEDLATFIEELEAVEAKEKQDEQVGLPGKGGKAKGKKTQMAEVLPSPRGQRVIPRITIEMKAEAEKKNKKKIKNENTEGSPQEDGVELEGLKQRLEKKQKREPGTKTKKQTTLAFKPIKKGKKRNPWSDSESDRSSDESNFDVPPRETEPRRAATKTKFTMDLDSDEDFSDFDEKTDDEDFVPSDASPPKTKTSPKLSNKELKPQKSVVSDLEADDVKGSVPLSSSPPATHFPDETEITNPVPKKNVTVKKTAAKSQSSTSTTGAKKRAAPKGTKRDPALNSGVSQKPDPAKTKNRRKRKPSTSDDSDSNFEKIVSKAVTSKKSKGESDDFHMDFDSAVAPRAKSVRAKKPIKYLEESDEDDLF

IC50 [1]: 13400 nM | IC50 [2]: 200 nM | IC50 [3]: 300 nM | inhibition [4]: 82.1% | IC50 [5]: 100 nM | IC50 [6]: 200 nM | IC50 [7]: 300 nM | Ratio IC50 [10]: > 52.1 | Ratio IC50 [11]: > 52.1 | Ratio IC50 [12]: > 52.1 | Ratio IC50 [13]: > 52.1 | Ratio IC50 [14]: > 52.1 | inhibition [23]: inactive | IC50 [24]: 300 nM | inhibition [27]: Dose-Dependent Effect | IC50 [38]: 3800 nM | IC50 [39]: 10100 nM
SMILES: O=C(CCc1ccccc1)Nc1ccc(-c2ccc3cc(O)ccc3c2)cc1
IC50 at 72 h [8]: > 50000 nM | IC50 at 72 h [9]: 31900 nM | selectivity ratio [15]: > 52.1 | selectivity ratio [16]: > 52.1 | selectivity ratio [17]: > 52.1 | selectivity ratio [18]: > 52.1 | selectivity ratio [19]: > 52.1 | selectivity ratio [20]: > 52.1 | selectivity ratio [21]: > 52.1 | selectivity ratio [22]: > 52.1 | Activity [25]: inactive | Activity [26]: inactive | Activity [28]: 32% | Activity [29]: 48.9% | Activity [30]: 11.2% | Activity [31]: 84.1% | Activity [32]: 24.5% | Activity [33]: 46.1% | Activity [34]: 0.3% | Activity [35]: Non-Toxic | Activity [36]: 13.4% | Activity [37]: 0.1%
